Here are results for one compound from US20100120788A1, “IDENTIFICATION OF POLYNUCLEOTIDES FOR […] OF COMPOUNDS THAT […] WITH AND/OR MODULATE PROTEIN TYROSINE KINASES AND/OR PROTEIN TYROSINE KINASE […] IN PROSTATE CELLS” (Bristol-Myers Squibb Company, priority 2007, published 2010).

What is called IC50 is the concentration needed to halve the response being measured.

Assay type in all cases: cell-based, human
The subject of one experiment is W99. The experiment in a line: In vitro cell proliferation assay (MTS). The settings on record: W99 cells. As for the experimental part:
(§1) The IC50 for each cell line was assessed in by MTS assays as described in Example 1 (Methods). […] The IC50 unit is μM.
(§2) All cell lines were obtained from the American Type Culture Collection (Manassas, Va.), except DUCaP, which was obtained from Dr. Kenneth Pienta at University of Michigan. PWR1E and MDAPCa2b cells were grown in BRFF-HPC1 serum-free medium (AthenaES, Baltimore, Md.), and all other cells were cultured in RPMI 1640 supplemented with 10% fetal bovine serum, 100 IU/ml penicillin, and […] (Invitrogen, Carlsbad, Calif.). DUCaP cells were maintained in the presence of an immortalized mouse fibroblast cell line, which formed a layer beneath DUCaP cells that easily dislodged. Cells were incubated at 37° C. with circulation of 5% CO2.
(§3) The optimum number of cells to seed in 96-well plates to achieve linearity were determined in pilot experiments. Cells were plated at density of 2000-5000 cells/well into 96-well plates and cultured overnight. Cells were then treated with dasatinib at serially diluted concentrations. Three days later, MTS was added to the medium and quantified on a SPECTRAMAX® photometric plate reader (Molecular Devices, Sunnyvale, Calif.) at 490 nm. The results were plotted against drug concentrations and IC50s were calculated using Prism4 software (GraphPad, San Diego, Calif.). The IC50 was the concentration of dasatinib that would reduce cell proliferation by 50% compared to control. Minimum three independent assays were performed for each cell line. […] In the latter case, the concentration of dasatinib that was able to consistently reduce cell proliferation was used as IC50. […] Dasatinib stock, dissolved in DMSO, was 10 mg/ml.

For another experiment, the system named is NB26. The experiment in a line: In vitro cell proliferation assay (MTS). To be noted: NB26 cells. The protocol:
as §1, §2, §3

The subject of another experiment is LNCaP. The experiment in a line: In vitro cell proliferation assay (MTS). The settings on record: LNCaP cells. The protocol: as §1, §2, §3
A further experiment relates to HPV7. As to the kind of experiment: In vitro cell proliferation assay (MTS). To be noted: HPV7 cells. The protocol:
as §1, §2, §3

The subject of the next experiment is 22Rvl. The experiment in a line: In vitro cell proliferation assay (MTS). The settings on record: 22Rvl cells. As for the experimental part:
as §1, §2, §3

In a further experiment the test system is VCaP. The experiment in a line: In vitro cell proliferation assay (MTS). The settings on record: VCaP cells. The protocol: as §1, §2, §3
The next experiment has as its system PLAU mRNA. As to the kind of experiment: Down-regulation of PLAU mRNA expression by dasatinib. The settings on record: for reduction of PLAU mRNA expression: 100 nM, 48 hours vs DMSO. The text has this:
FIG. 3. PLAU gene expression and regulation by dasatinib analyzed at mRNA and protein levels. (A) Differential baseline expression of PLAU gene between resistant (R, in black) and sensitive (S, in red) cell lines. The X-values are the expression level in log2-scale. The resistant cell line expressing high level of PLAU was WPMY1 and the sensitive cell line expressing low level of PLAU was LNCaP. (B) Down-regulation of PLAU mRNA level by dasatinib-treatment in 5 sensitive cell lines. The cells were treated with 100 nM dasatinib (+D) or DMSO (Ctrl) for 48 hours. The p value was 0.048 in paired t-test, indicating a significant reduction of PLAU mRNA following dasatinib treatment. (C) Correlation between dasatinib-induced PLAU mRNA down-regulation with the sensitivity of cell lines to dasatinib. In addition to those 5 sensitive cells, three dasatinib-resistant cell lines 22Rv, MDAPCa2b, and VCaP were also treated with dasatinib same as in FIG. 3B. The extent of PLAU down-regulation by dasatinib (Y-axis) was negatively correlated with the log2IC50 values (X-axis) of these 8 cell lines. (D) Dose-dependent down-regulation of PLAU mRNA expression in PC3 cells. Cells were treated with or without different concentrations of dasatinib for 4 or 24 hours. The PLAU expression level relative to control was shown in Y-axis. (E) Dose-dependent inhibition of secreted uPA protein in PC3 cells by dasatinib but not by TAXOL®. Cells were treated with different doses of dasatinib, TAXOL® or DMSO for 24 hours. The amount of uPA protein secreted into the culture medium by 50,000 viable cells was assessed by ELISA assay.
The down-regulation of PLAU mRNA expression by dasatinib was observed (FIG. 3B).
AFFYMETRIX® HG-U133v2 gene chips containing ˜22,000 probe sets were used for gene expression profiling (Affymetrix, Santa Clara, Calif.). Total RNA was isolated from the cells using the RNeasy kits (Qiagen, Valencia, Calif.). The quality of the RNA was assessed using an Agilent 2100 Bioanalyzer (Agilent, Santa Clara, Calif.). Ten μg of total RNA was used for the preparation of biotin-labeled cRNA. Chip hybridization, scanning and data acquisition were performed according to the Expression Analysis Technical Manual provided by the manufacturer.
The raw expression data were normalized using an RMA algorithm and analyzed in PARTEK® Discovery Suite software (Partek, St Louis, Mo.). Two statistical analyses including 1-way ANOVA for comparison of gene expression between sensitive and resistant cell line groups, and Pearson correlation between gene expression level and log2IC50 values were performed to identify genes whose baseline expression levels correlated with the sensitivity to dasatinib in 16 prostate cell lines (p value<0.05 in both analyses). […] ESTs and gene duplicates were eliminated from the final list. Gene expression profiles of drug treated (100 nM for 2 days) cell lines were compared with those of DMSO control using paired t-test (p value<0.05). Clustering analysis was performed using GeneCluster software and heatmaps were generated with red and green indicating high or low expression respectively.

[1] abbreviates: Homo sapiens, 72 h, MTS, three days, read-out: mean IC50 (μM) to BMS-A.
[2] abbreviates: Homo sapiens, 72 h, MTS, three days, highly resistant: concentration that consistently reduced proliferation used as IC50, read-out: mean IC50 (μM) to BMS-A.

Turning to `Cc1nc(Nc2ncc(C(=O)Nc3c(C)cccc3Cl)s2)cc(N2CCN(CCO)CC2)n1` [BMS-A, N-(2-chloro-6-methylphenyl)-2-[[6-[4-(2-hydroxyethyl)-1-piperazinyl]-2-methyl-4-pyrimidinyl]amino]-5-thiazolecarboxamide], the IC50 was determined as 0.199 µM in the experiment with W99 (setting [1]); 0.139 µM with NB26 (setting [1]); 0.068 µM in the experiment on LNCaP (setting [1]); 0.127 µM in the experiment with HPV7 (setting [1]); 2 µM in the experiment on 22Rvl (setting [2]); 2 µM in the experiment with VCaP (setting [2]). Further, the Classification result in the experiment with W99 (based on IC50) is reported as “Sensitive (The cell lines with an IC50 lower than 0.2 μm were defined as sensitive to the compound)”; in the experiment on NB26 (based on IC50), “Sensitive (The cell lines with an IC50 lower than 0.2 μm were defined as sensitive to the compound)”; with LNCaP (based on IC50), “Sensitive (The cell lines with an IC50 lower than 0.2 μm were defined as sensitive to the compound)”; in the experiment with HPV7 (based on IC50), “Sensitive (The cell lines with an IC50 lower than 0.2 μm were defined as sensitive to the compound)”; with 22Rvl (based on IC50), “Resistant (those having an IC50 above 0.2 μm were considered to be resistant)”; with VCaP (based on IC50), “Resistant (those having an IC50 above 0.2 μm were considered to be resistant)”. Besides, the “reduction of PLAU mRNA expression” value in the experiment with PLAU mRNA (DU145 cells) is listed as “approximately 50%”; with PLAU mRNA (LNCaP cells), “showed a reduction”; in the experiment with PLAU mRNA (PC3 cells), “approximately 50%”; in the experiment with PLAU mRNA (PWR1E cells (CK5-expressing)), “relatively mild reduction”; in the experiment with PLAU mRNA (RWPE2 cells (CK5-expressing)) it was “relatively mild reduction”. The “reduction of PLAU mRNA level, multiple-dose treatment study” value in the experiment on PLAU mRNA (PC3 cells, 4 h, all doses vs untreated control) is reported as “minimal”; in the experiment on PLAU mRNA (PC3 cells, 24 h, dose-dependent), “dramatic”.
